The record followed here is US20150038464A1, “METHODS OF INCREASING LIGHT RESPONSIVENESS IN A SUBJECT WITH RETINAL DEGENERATION” (The United States Government as represented by the …, priority 2012, published 2015).

Assay [1] concerns P23H rat RGCs. Put plainly: Light-evoked responses (intensity-response curves) of retinal ganglion cells recorded extracellularly from isolated P23H rat retina. Type of assay: cell-based. As to conditions: 16 P23H rat RGCs, 500 nM JNJ16259685.
The test system of assay [2] is P23H rat RGCs. Described as above. Type of assay: cell-based. As to conditions: 500 nM JNJ16259685. The protocol: Sprague-Dawley (SD) rats (age range 13-44 weeks) and P23H-line 1 homozygous rats (age range 23-42 weeks) were used in this study. Both the SD rats and P23H rats were bred and housed in the same facility. Breeding pairs of SD rats were obtained from Harlan Laboratories (Indianapolis, Ind.). Breeding pairs of P23H-line 1 homozygous rats were generously donated by Dr. Matthew LaVail (University of California San Francisco, Calif.). The room light was kept on a 12 hour light/dark cycle using standard fluorescent lighting. During the light cycle the illumination at the level of the cages was 100-200 lux. All animal care procedures and experimental methods were approved by the appropriate Institutional Animal Care and Use Committee.
On the day of an experiment, a rat was euthanized with sodium pentobarbital (150 mg/kg, i.p.), and the eyes were removed and hemisected under normal room light. […]
Light from a mercury arc lamp illuminated an aperture that was focused on the retina from above through the 4× objective of the microscope. The image produced on the retina was either a 250-μm or 1.5-mm diameter spot, which was centered on the recorded RGC. […] The intensity of the unattenuated light stimulus on the retina measured with a spectroradiometer (ILT900-R, International Light Technologies, Peabody, Mass.) was 8.5×10^17 photons/cm^2/s. […]

For `CO[C@H]1CC[C@@H](C(=O)c2ccc3nc4c(cc3c2)CCCO4)CC1` [JNJ16259685, 3,4-dihydro-2H-pyranol[2,3-b]quinolin-7-yl-(cis-4-methoxycyclohexyl)-methanone], the “dynamic operating range with drug” value with P23H rat RGCs [1] (mean±SD, before drug 0.89±0.41) turned out to be 1.05±0.42 log unit. Further, the “maximum peak response with drug” value in the assay with P23H rat RGCs [1] (mean±SD, before drug 162±65) is on record as 178±64 spikes/s. The “factor by which the light the cells responded to was less intense than without drug” value in the assay on P23H rat RGCs [1] is reported as around 4 fold. Besides, the “increase in dynamic operating range” value in the assay on P23H rat RGCs [1] (not significant (P=0.239)) is 18%. Also, the “average increase in light sensitivity” value with P23H rat RGCs [2] (16 P23H rat RGCs (15 ON-center, one OFF-center)) was determined as 0.56 log units. The “increase in maximum peak response” value with P23H rat RGCs [2] (16 P23H rat RGCs, P=0.007) turned out to be 9.9%.
